Measurements taken from EP1643252B1 (priority 2004, dated 2009).

How the values were obtained:
PrP^Sc = details: brain homogenate of prion disease infected animal and human; biotinylated peptide on streptavidin magnetic beads
cellular prion protein = details: from individual with no prion disease

Sequence	ability to capture PrP^Sc from brain homogenate (PrP^Sc)	capture of cellular prion protein (cellular prion protein)
YRGRYGYKGKYGYRG [peptide-6]	capture PrP^Sc	do not capture cellular prion protein
NWCKRGRKNCKTH [peptide-2]	capture PrP^Sc	do not capture cellular prion protein
NYKKPKLG [peptide-3]	capture PrP^Sc	do not capture cellular prion protein
YRGYRGYRGYRG [peptide-5]	capture PrP^Sc	do not capture cellular prion protein
WQPPRARI [peptide-1]	capture PrP^Sc	do not capture cellular prion protein
AQKKDGKKRKRSRKESYSIYV [peptide-7]	capture PrP^Sc	do not capture cellular prion protein
